What was measured:
[1] = human
[2] = human; remark: listed apart in the source
[3] = human; remark: listed apart in the source
[4] = human; remark: listed apart in the source
[5] = human, serum
[6] = human; remark: listed apart in the source
[7] = human, serum; remark: listed apart in the source
[8] = human; remark: listed apart in the source
[9] = Comments (NB not yet translated). [column 'COMMENTAIRES' in source]; details: human
[10] = Times to onset, minimal and maximal, observed in the indexed observations. [column 'DELAI' in source]; details: human
[11] = human; remark: listed apart in the source
[12] = human, serum, 4383 h
[13] = human; remark: listed apart in the source
[14] = human; remark: listed apart in the source
[15] = Highest frequency of acute liver toxicity observed during clinical trials, expressed as a percentage. [column '% AIGUE' in source]; details: human
[16] = Highest frequency of moderate liver toxicity observed during clinical trials, expressed as a percentage. [column '% BIOL' in source]; details: human
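Wherever Hepatotoxicity (association with vascular disease) is given: count of indexed literature references reporting vascular liver injury in humans, e.g. peliosis hepatitis, hepatic veno-occlusive disease or Budd-Chiari syndrome.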
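Wherever Hepatotoxicity (benign tumour) is given: value is a count of indexed literature references citing a benign tumour confirmed by histopathology.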
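Wherever Hepatotoxicity (choleostasis) is given: human cholestatic liver injury, shown by histopathology or by peak ALT or AST elevation over alkaline phosphatase ratio below 2, value counts indexed literature reports.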
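Wherever Hepatotoxicity (chronic liver disease) is given: chronic liver injury confirmed by histopathology or persistently raised serum aminotransferase activity beyond 6 months, value given as the count of indexed literature references.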
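Wherever Hepatotoxicity (cirrhosis) is given: value is a count of indexed literature references reporting cirrhosis confirmed by histopathology.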
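Wherever Hepatotoxicity (cytolytic) is given: human cytolytic liver injury, shown by histopathology or by a ratio above 5 of peak ALT or AST elevation to alkaline phosphatase elevation, value counts indexed references.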
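Wherever Hepatotoxicity (granulomatous hepatitis) is given: value is a count of indexed literature references reporting granulomatous liver disease confirmed by histopathology.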
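Wherever Hepatotoxicity (malignant tumour) is given: malignant tumour confirmed by histopathology, value gives the count of indexed literature references reporting it.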
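Wherever Hepatotoxicity (severe hepatitis) is given: human clinical data: severe hepatitis, meaning potentially life-threatening liver failure or clinically observed cases, the value counts how many indexed literature references report it.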
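Wherever Hepatotoxicity (steatosis) is given: steatosis confirmed by histopathology, value is the count of indexed references.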

| Compound | Hepatotoxicity (severe hepatitis) [1] | Hepatotoxicity (steatosis) [2] | Hepatotoxicity (cytolytic) [3] | Hepatotoxicity (cirrhosis) [4] | Hepatotoxicity (acute) [5] | Hepatotoxicity (granulomatous hepatitis) [6] | Hepatotoxicity (moderate) [7] | Hepatotoxicity (choleostasis) [8] | Hepatotoxicity (comment) [9] | Hepatotoxicity (time to onset) [10] | Hepatotoxicity (benign tumour) [11] | Hepatotoxicity (chronic liver disease) [12] | Hepatotoxicity (association with vascular disease) [13] | Hepatotoxicity (malignant tumour) [14] | Hepatotoxicity (acute) [15] | Hepatotoxicity (moderate) [16] | Hepatotoxicity (severe hepatitis) ([1]; Liver) | Hepatotoxicity (acute) ([15]; Liver) | Hepatotoxicity (moderate) ([16]; Liver) |
| --- | --- | --- | --- | --- | --- | --- | --- | --- | --- | --- | --- | --- | --- | --- | --- | --- | --- | --- | --- |
| C[C@]1(O)CC[C@H]2[C@@H]3CCC4=CC(=O)CC[C@]4(C)[C@@]3(F)[C@@H](O)C[C@@]21C [FLUOXYMESTERONE] | 0 | 0 | 0 | 0 | 2 | 0 | 2 | 2 | ANGIOSARCOME PELIOSE | 6 months - 13 years | 1 | 0 | 6 | 3 | 0% | 7.1% |  |  |  |
| CCC(=O)O[C@@H](O[P@](=O)(CCCCc1ccccc1)CC(=O)N1C[C@H](C2CCCCC2)C[C@H]1C(=O)O)C(C)C [FOSINOPRIL] | 0 | 0 | 0 | 0 | 2 | 0 | 3 | 2 | PERICHOLANGITE CHOLESTASE_PROLONGEE | 3 weeks - 3 months | 0 | 0 | 0 | 0 | 0% | 1.2% |  |  |  |
| CCC1=C(C)CN(C(=O)NCCc2ccc(S(=O)(=O)NC(=O)N[C@H]3CC[C@H](C)CC3)cc2)C1=O [GLIMEPIRIDE] | 0 | 0 | 1 | 0 | 2 | 0 | 0 | 1 | CHOLANGIOLITE | 2.5 months - 3.3 months | 0 | 0 | 0 | 0 | 0% | 0% |  |  |  |
| N=C(N)c1ccc(/C=C/c2ccc(C(=N)N)cc2O)cc1 [HYDROXYSTILBAMIDINE] | 0 | 1 | 0 | 0 | 1 | 0 | 0 | 0 | #S.REYE | 1 month | 0 | 0 | 0 | 0 | 0% | 0% |  |  |  |
| CC(=O)[C@]1(O)Cc2c(O)c3c(c(O)c2[C@@H](O[C@H]2C[C@H](N)[C@H](O)[C@H](C)O2)C1)C(=O)c1ccccc1C3=O [IDARUBICIN] | 2 | 0 | 1 | 0 | 1 | 0 | 7 | 0 | HCF MVO REACTIVATION_HVB | 8 days - 6 months | 0 | 0 | 1 | 0 | 0% | 18.2% |  |  |  |
| CCCCC1=NC2(CCCC2)C(=O)N1Cc1ccc(-c2ccccc2-c2nnn[nH]2)cc1 [IRBESARTAN] |  | 0 | 0 | 0 | 2 | 0 | 2 | 2 | CHOLESTASE_PROLONGEE | 5 days - 4 weeks | 0 | 0 | 0 | 0 |  |  | 0 | 0% | 4.3% |
| CC(=O)/N=c1/sc(S(N)(=O)=O)nn1C [METHAZOLAMIDE] | 0 | 0 | 0 | 0 | 1 | 0 | 0 | 1 | CHOLESTASE_PROLONGEE | 2 weeks | 0 | 0 | 0 | 0 | 0% | 0% |  |  |  |
| CCOc1ccc2ccccc2c1C(=O)N[C@@H]1C(=O)N2[C@@H]1SC(C)(C)[C@@H]2C(=O)O [NAFCILLIN] | 0 | 0 | 1 | 0 | 5 | 0 | 4 | 3 | RC/OXACILLINE/CEFALOTINE | 1 day - 2 weeks | 0 | 0 | 0 | 0 | 3.1% | 25% |  |  |  |
| C[C@]12CC[C@H]3[C@@H](CCC4=CC(=O)CC[C@@H]43)[C@@H]1CC[C@@H]2O [NANDROLONE] | 0 | 1 | 3 | 0 | 7 | 0 | 0 | 1 | CHOLESTASE_PROLONGEE | 4 months - 12 years | 2 | 0 | 0 | 0 | 0% | 0% |  |  |  |
| O=C(CCNNC(=O)c1ccncc1)NCc1ccccc1 [NIALAMIDE] | 0 | 1 | 2 | 0 | 2 | 0 | 0 | 1 | RC/PHENIPRAZINE | 3 weeks | 0 | 0 | 0 | 0 | 0% | 0% |  |  |  |
| CCOC(=O)C1=C(C)NC(C)=C(C(=O)OC)C1c1cccc([N+](=O)[O-])c1 (stereo not drawn) [NITRENDIPINE] | 0 | 0 | 0 | 0 | 1 | 0 | 2 | 0 | AC_ANTI-N | 3 weeks | 0 | 0 | 0 | 0 | 0% | 18.2% |  |  |  |
| CC1COc2c(N3CCN(C)CC3)c(F)cc3c(=O)c(C(=O)O)cn1c23 (stereo not drawn) [OFLOXACIN] | 2 | 0 | 6 | 0 | 11 | 1 | 61 | 5 | I/PYRAZINAMIDE | 4 days - 26 weeks | 0 | 0 | 0 | 0 | 18.2% | 42.2% |  |  |  |
| O=C(O)c1cc(/N=N/c2ccc(O)c(C(=O)O)c2)ccc1O [OLSALAZINE] | 0 | 0 | 1 | 0 | 1 | 0 | 1 | 1 | RC/SULFASALAZINE | 3 weeks | 0 | 0 | 0 | 0 | 0% | 15% |  |  |  |

— ChEMBL document CHEMBL3137667, “[Drug-induced liver injury; fourteenth updated edition of the bibliographic database of liver injuries and related drugs]” (Gastroenterol Clin Biol, 2004)
